The values that follow come from ChEMBL document CHEMBL1201862, “PubChem BioAssay data set” (2004).

Calls of active or inactive are those of the source.

The test system of one experiment is Vero. Briefly: mammalian cell viability reduction – secondary assay, cytotoxicity control for West Nile virus antiviral project, dose response (AID 1650). The format is functional. The following applies: Chlorocebus sabaeus.
Experiment [1] in a line: NIH3T3 cell viability loss – ATP luminescence, mouse fibroblasts, counter-screen, dose response (AID 2010).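 Further: cells exposed to compound for about 90 hours before reading.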 The format is functional, cell-based.
Experiment [2] is described as follows: cells. Format: functional, cell-based.
A further experiment concerns Streptococcus. Briefly: GAS UMAA2166 growth inhibition – luminescence, BacTiterGlo, counter-screen for streptokinase expression inhibitor project, dose response (AID 1915).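 Further: potency for reduction of bacterial viability or growth.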 Format: functional, organism-based. The following applies: Streptococcus.
For experiment [3], the system named is Streptococcus sp. 'group A'. Briefly: Streptococcus pyogenes SK(-)GAS viability under kanamycin – luminescence, BacTiterGlo, confirmation, counter-screen for streptokinase expression inhibitor project, dose response (AID 1900). Format: functional, organism-based. Particulars: Streptococcus sp. 'group A'.
Experiment [4] can be described thus: Trypanosoma cruzi growth suppression in host cells – NIH3T3 host cells, beta-gal luminescence, confirmation (AID 2044).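 Further: intracellular parasites grown in NIH/3T3 mouse fibroblasts as host cells; luminescent beta-galactosidase reporter signal from transgenic T. cruzi replicating inside host cells; inhibitors lower the luminescence signal.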 The format is functional, cell-based.
A short description of experiment [5]: cells. Format: functional, cell-based. This is another data set of the same source.
Experiment [6] is described as follows: microbe, parasite or virus in culture. Format: functional. The following applies: Mycobacterium tuberculosis.
The target in the next experiment is Paired box protein Pax-8 (Homo sapiens, UniProt Q06710). The experiment is described as follows: PAX8 transcriptional activity inhibition in RMG-I – RMG-I cells, luciferase, cherry-pick, dose response (AID 687027).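 Further: luciferase reporter driven by Pax8 target thyroperoxidase promoter measured by SteadyGlo luminescence.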 The format is functional, cell-based.
Sequence of Paired box protein Pax-8 (Q06710 whole entry): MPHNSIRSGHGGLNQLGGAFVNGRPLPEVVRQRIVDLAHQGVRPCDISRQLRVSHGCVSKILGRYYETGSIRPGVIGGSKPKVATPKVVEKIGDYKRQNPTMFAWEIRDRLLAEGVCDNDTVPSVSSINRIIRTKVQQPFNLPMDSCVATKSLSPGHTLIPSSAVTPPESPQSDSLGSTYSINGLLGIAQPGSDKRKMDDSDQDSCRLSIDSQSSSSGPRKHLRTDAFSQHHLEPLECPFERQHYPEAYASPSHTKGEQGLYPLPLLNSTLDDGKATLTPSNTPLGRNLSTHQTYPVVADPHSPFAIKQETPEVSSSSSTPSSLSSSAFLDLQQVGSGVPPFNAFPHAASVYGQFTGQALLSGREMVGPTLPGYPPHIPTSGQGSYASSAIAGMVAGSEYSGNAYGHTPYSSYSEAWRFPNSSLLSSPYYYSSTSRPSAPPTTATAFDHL
Experiment [7] is described as follows: reduction of Shn3 3'UTR-driven luciferase in osteoblasts – cell-based, Clone20 osteoblasts, firefly luciferase, cherry-picked, dose response (AID 624132).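 Further: firefly luciferase luminescence from reporter carrying the Shn3 3'UTR in osteoblasts.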 The format is functional.
Experiment [8] is described as follows: non-specific 3'UTR reporter inhibition in Clone20-Shn3RL – cell-based, Renilla luciferase, cherry-picked, counter-screen for Shn3 inhibitor project, dose response (AID 624133). Format: functional.
The target of another experiment is Prothrombin (Homo sapiens, UniProt P00734). Briefly: Thrombin 1536 HTS Dose Response Confirmation. [Related pubchem assays: 1046 (Thrombin 1536 HTS; hits were confirmed in this assay)]. Format: functional.
Experiment [9] addresses T1, Carboxy-terminal domain RNA polymerase II polypeptide A small phosphatase 1 (Homo sapiens, UniProt Q9GZU7).
T1 sequence (Q9GZU7 whole entry): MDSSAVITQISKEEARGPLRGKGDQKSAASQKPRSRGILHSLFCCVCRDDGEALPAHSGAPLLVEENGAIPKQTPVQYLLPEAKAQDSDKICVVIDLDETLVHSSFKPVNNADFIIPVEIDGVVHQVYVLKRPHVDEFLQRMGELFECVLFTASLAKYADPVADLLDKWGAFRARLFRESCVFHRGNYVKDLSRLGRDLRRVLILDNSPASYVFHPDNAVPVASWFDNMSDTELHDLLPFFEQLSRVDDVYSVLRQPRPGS
Briefly: CTDSP1 inhibitors, concentration-response, biochemical, absorbance readout, ultra-high-throughput screen actives (AID 540297). The format is functional.

Experiment [10] has as its target T2, RNA-binding protein pos-1 (Caenorhabditis elegans, UniProt G5EF15).
T2 sequence (G5EF15 whole entry): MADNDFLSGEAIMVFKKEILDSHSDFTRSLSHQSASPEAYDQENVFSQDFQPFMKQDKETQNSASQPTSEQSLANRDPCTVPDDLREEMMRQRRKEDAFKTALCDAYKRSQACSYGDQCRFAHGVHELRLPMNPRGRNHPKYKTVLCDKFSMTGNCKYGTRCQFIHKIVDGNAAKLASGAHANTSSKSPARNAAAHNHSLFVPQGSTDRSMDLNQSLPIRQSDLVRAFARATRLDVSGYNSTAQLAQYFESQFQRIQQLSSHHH
Briefly: disruptors of C. elegans POS-1 RNA interaction – biochemical, fluorescence polarization, dose response (AID 1964).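 Further: purified POS-1 fused to maltose binding protein made in E. coli; potency of compounds blocking POS-1 binding to fluorescent RNA.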

Experiment [11] has as its target T3, Bifunctional protein GlmU (Mycobacterium tuberculosis, UniProt P9WMN3).
T3 sequence (P9WMN3 whole entry): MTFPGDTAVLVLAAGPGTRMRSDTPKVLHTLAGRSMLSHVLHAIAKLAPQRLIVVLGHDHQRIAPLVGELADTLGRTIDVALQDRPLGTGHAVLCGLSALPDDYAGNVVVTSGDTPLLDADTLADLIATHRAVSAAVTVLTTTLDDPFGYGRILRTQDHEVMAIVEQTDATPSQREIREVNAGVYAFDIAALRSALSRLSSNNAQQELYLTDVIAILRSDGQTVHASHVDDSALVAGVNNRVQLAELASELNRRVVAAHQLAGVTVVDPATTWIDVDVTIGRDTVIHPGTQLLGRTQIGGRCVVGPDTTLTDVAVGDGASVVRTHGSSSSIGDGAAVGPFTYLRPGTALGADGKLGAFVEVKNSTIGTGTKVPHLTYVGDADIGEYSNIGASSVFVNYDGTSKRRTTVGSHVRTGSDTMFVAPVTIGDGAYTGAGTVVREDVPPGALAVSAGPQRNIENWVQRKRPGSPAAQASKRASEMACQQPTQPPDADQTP
Briefly: Inhibitors of Mycobacterial Glucosamine-1-phosphate acetyl transferase (GlmU). Secondary screen. More on the design: species or system Mycobacterium tuberculosis H37Rv.

In experiment [12] the target is T4, Zinc finger protein mex-5 (Caenorhabditis elegans, UniProt Q9XUB2).
T4 sequence (Q9XUB2 whole entry): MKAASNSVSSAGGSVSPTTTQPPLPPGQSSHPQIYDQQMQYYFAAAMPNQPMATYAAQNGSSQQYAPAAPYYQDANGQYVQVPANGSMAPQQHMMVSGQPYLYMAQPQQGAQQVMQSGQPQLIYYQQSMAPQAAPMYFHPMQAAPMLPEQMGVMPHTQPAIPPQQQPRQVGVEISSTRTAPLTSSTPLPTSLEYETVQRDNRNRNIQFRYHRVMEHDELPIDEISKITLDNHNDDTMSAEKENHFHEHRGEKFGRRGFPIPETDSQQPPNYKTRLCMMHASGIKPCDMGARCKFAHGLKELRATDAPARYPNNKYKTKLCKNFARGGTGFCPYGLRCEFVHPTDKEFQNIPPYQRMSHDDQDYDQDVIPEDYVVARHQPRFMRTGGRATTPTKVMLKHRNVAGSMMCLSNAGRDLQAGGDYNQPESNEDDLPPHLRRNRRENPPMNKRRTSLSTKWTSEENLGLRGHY
The experiment is described as follows: potency of MEX-5 RNA-binding blockers – biochemical, C. elegans, fluorescence polarization, dose response (AID 1960).

The target of experiment [13] is T5, Histone-lysine N-methyltransferase NSD2 (Homo sapiens, UniProt O96028).
T5 sequence (O96028 whole entry): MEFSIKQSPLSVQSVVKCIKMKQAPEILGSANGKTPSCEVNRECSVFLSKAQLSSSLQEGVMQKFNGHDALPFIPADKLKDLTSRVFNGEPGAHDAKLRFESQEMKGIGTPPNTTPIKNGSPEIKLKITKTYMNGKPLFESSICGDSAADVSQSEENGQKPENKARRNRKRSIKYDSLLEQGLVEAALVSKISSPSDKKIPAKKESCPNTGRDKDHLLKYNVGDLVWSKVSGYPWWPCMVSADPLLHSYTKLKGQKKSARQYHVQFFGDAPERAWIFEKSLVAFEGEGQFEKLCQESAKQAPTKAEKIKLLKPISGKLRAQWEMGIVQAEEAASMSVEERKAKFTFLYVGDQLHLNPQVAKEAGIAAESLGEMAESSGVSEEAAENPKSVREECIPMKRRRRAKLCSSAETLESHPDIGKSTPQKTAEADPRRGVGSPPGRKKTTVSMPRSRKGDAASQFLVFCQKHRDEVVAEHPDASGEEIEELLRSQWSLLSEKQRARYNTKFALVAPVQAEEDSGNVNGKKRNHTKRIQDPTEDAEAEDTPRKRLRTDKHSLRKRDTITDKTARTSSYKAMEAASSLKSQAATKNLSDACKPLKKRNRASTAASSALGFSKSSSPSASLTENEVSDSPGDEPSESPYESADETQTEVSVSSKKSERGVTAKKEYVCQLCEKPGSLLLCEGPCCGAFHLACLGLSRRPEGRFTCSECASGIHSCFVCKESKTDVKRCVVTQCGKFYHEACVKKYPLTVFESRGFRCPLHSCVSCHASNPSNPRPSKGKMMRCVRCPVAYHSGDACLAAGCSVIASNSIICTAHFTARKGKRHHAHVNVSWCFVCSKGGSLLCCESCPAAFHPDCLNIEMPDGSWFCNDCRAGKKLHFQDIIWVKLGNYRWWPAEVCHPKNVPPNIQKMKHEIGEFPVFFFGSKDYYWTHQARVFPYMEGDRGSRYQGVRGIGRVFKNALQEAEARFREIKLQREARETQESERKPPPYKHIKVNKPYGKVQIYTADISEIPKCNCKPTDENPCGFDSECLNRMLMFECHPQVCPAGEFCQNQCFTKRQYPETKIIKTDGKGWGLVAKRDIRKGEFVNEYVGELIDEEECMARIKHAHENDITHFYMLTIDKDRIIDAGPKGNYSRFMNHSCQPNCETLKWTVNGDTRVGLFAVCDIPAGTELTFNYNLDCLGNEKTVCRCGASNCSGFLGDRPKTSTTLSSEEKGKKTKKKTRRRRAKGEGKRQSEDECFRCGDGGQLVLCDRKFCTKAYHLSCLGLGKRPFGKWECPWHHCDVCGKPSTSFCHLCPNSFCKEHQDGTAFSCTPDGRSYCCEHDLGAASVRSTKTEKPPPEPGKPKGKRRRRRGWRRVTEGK
The format is biochemical.

Experiment [14] can be described thus: Luminescence Cell-Based Dose Response HTS to Identify Inhibitors of 5'UTR Stem-Loop Driven Prion Protein mRNA Translation in H4 Neuroglioblastoma Cells. [Related pubchem assays: 1827 (Project Summary), 1813 (Primary HTS)]. Format: functional.
Experiment [15] in a line: luciferase reporter signal suppression in cells – H4 neuroglioma cells, luminescence, dose response (AID 1990). Format: functional, cell-based.
Experiment [16] is described as follows: alpha-synuclein stem-loop luciferase translation blockers – H4 neuroglioma cells, luminescence, confirmation (AID 1988). The format is functional, cell-based.

Take `O=C(Nc1ccccc1-c1nc2ccccc2s1)c1ccco1`: in the experiment on Vero, the CC50 is 12.8 µM (active).
In the case of `Cc1cccc(C)c1Nc1c(-c2ccccn2)nc2ccccn12`, the figures for the CC50 (with Vero; in experiment [6]) were 4.16 µM (active) and 3.91 µM (active), respectively. Besides, the EC50 in experiment [1] is 6.81 µM (active); in the experiment “cells [2]”, > 350 µM (not active); in the experiment with Streptococcus, 6.43 µM (active); in experiment [3], 2.52 µM (active); in experiment [4], 1.45 µM (active); in the experiment “cells [5]” it was 92.4 µM (active).
With `C=C1C(=O)[C@@]23[C@H](O)C[C@@H]4C(C)(C)CC[C@H](O)[C@]4(C)[C@@H]2C[C@H](O)[C@@H]1[C@H]3O`, the AC50 was 3.37 µM (active) on Paired box protein Pax-8, 2.95 µM (active) in [7] and 18.3 µM (active) in experiment [8]. Also, the CC50 in the experiment with Vero was 14.9 µM (active).
Regarding `CCOc1ccc(NC(=O)C(C)O)c(NS(=O)(=O)c2ccc(CCNC(C)=O)cc2)c1` (stereo not given), on Prothrombin, the IC50 was > 50 µM (not active).
On the same count and under the same terms, the figure for `CCCC(C)C(=O)Nc1ccc(F)c(Cl)c1` (stereo not given) is > 50 µM (not active); for `Cc1ccc(S(=O)(=O)/N=C/c2ccco2)cc1` it is > 50 µM (not active).
In the case of `CC(=O)NC1=NC(=O)/C(=C/c2cc(C)n(-c3cccc(C(=O)O)c3)c2C)S1`, the IC50 is 4.31 µM (active) in experiment [9] and 93.8 µM (active) in experiment [11]. The half-maximal effective concentration (EC50) is > 300 µM (not active) in experiment [10] and > 300 µM (inconclusive) in [12]. In [13], the AC50 was 9.13 µM (active).
Regarding `C=CCc1cccc(/C=N/NC(=O)CNc2ccccc2)c1O`, the 50% inhibitory concentration (IC50) on Prothrombin is on record as > 50 µM (not active). In addition, the EC50 in [14] was 10.7 µM (active); in experiment [15] it was > 120 µM (not active); in experiment [16] it was > 120 µM (not active).
